Measurements reported in patent US4459294A, “Phosphoric and thiophosphoric esters of 5(3)-hydroxypyrazoles exerting an insecticidal action” (priority 1977, dated 1984).

Tests used:
[1] = system: Blatta orientalis; test: Biological activity on Blatta orientalis (Ortoptera); assay type: in vivo; conditions: 0.1 g/m^2, 48 hours after start of treatment, read-out: percentage of reduction of the infestation (percentage mortality), Blatta
Method: Biological activity on Blatta orientalis (Ortoptera)
The bottom and side walls of glass beakers were treated uniformly with an acetonic solution of the products under examination. After evaporation of the solvent in each beaker, into the same were then introduced ten, 80-100 days old neanides, whereafter they were closed with a lid of metal netting. After 24 hours from the beginning of the treatment, the insects were transferred into untreated glass beakers, and suitably nourished. The percentage mortality (untreated insects=0) was determined 48 hours after the start of the treatment.

[2] = system: Culex pipiens larvae; test: Biological activity on Culex pipiens (diptera) larvae; assay type: in vivo; conditions: 24 hours after treatment, read-out: percentage of reduction of the infestation (percentage death rate), Culex larvae
Method: Biological activity on Culex pipiens (diptera) larvae
Into glasses containing an aqueous dispersion of the products under examination, were introduced third and fourth age mosquito larvae. The percentage death rate of the larvae (glasses containing pure water=0) was determined 24 hours after treatment.

[3] = system: Culex pipiens adults; test: Biological activity on Culex pipiens (Diptera): adults; assay type: in vivo; conditions: 0.2 g/m^2, 24 hours after beginning of treatment, read-out: percentage of reduction of the infestation (mortality percentage), Culex ad.
Method: Biological activity on Culex pipiens (Diptera): adults
Whatman n°1 paper rectangles were treated uniformly with an acetonic solution of the products under examination. After evaporation of the solvent, each treated paper rectangle was used to line the inside wall of a perspex cylinder (model OMS). The paper-lined perspex cylinder was then closed with a net after having introduced into it 2-3 days old adult females. After one hour from the start of the contact, the insects were transferred into a similar cylinder likewise lined with untreated paper, and were fed with a sugary solution.
The mortality percentage (untreated insects=0) was determined 24 hours after the beginning of the treatment.

[4] = system: Macrosiphum euphorbiae; test: Biological activity on Macrosiphum euphorbiae (aphides); assay type: in vivo; set-up: tested at 0.01 permill; conditions: 0.01 permill.; 24 hours after treatment
Method: Biological activity on Macrosiphum euphorbiae (aphides)
Small potato plants grown in pots were infested with adult female aphides and, after several hours, were sprinkled with an aqueous dispersion of the products under examination.
The percentage death rate was determined 24 hours after treatment (untreated plants=0).

[5] = system: Leptinatarsa decomlineata; test: Biological activity on Leptinatarsa decomlineata (Coledptera), 4-day old larvae; assay type: in vivo; conditions: 0.1 permill.; 48 hours after treatment
Method: Biological activity on Leptinatarsa decomlineata (Coledptera)
Small, pot-grown potato-plants were infested with 4-day old larvae, and then were sprinkled with an aqueous dispersion of the products under examination. The percentage death rate (untreated plants=0) was determined 48 hours after treatment.

[6] = Toxicity by os on rats; conditions: rat, in vivo, po
[7] = system: Tetranychus urticae; test: Biological activity on Tetranychus urticae (Acari) adults; assay type: in vivo; conditions: 0.01 permill.; 24 hours after treatment
Method: Biological Activity on Tetranychus urticae (Acari) adults
Small bean leaf discs were infected with adult acari and were then sprinkled with an aqueous dispersion of the products under examination. The percentage of mortality was determined 24 hours after the treatment (untreated discs, mortality=0).

[8] = system: Musca domestica; test: Biological activity on Musca domestica (Diptera), topical application; assay type: in vivo; conditions: 0.5 γ/ins, 24 hours after treatment
Method: Biological activity on Musca domestica (Diptera)
4-days old adults were treated, by topical application by microsyringe, with an acetonic solution of the products under examination.
The mortality percentage (insects treated with acetone only=0) was determined 24 hours after the treatment.

[9] = system: Pieris brassicae; test: Biological activity on Pieris brassicae (Lepitoptera), 5-day old larvae; assay type: in vivo; conditions: 0.1 permill.; 48 hours after treatment
Method: Biological activity on Pieris brassicae (Lepitoptera)
Cut cauliflower leaves were sprinkled with an aqueous dispersion of the products under examination. After drying, the leaves were infested with 5-day old larvae. The percentage death rate of the larvae (untreated leaves=0) was determined 48 hours after treatment.

[10] = system: Spodoptera littoralis; test: Biological activity on Spodoptera littoralis (Lepidoptera), 5-days old larvae; assay type: in vivo; conditions: 0.1 permill.; 48 hours after treatment
Method: Biological activity on Spodoptera littoralis (Lepidoptera)
Cut tobacco leaves were sprinkled with an aqueous dispersion of the products under examination. After drying, the leaves were infested with 5-days old larvae. The percentage mortality of the larvae was determined 48 hours after treatment (untreated leaves, mortality=0).

[11] = system: Meloidogyne incognita; test: Biological activity on Meloidogyne incognita (Nematoda); assay type: in vivo; conditions: 20 ppm; 21 days after transplanting
Method: Biological activity on Meloidogyne incognita (Nematoda)
Aliquot parts of a 1:1 mixture of field soil and sand, infested by Nematoda larvae and eggs, were treated by uniformly mixing same with an aqueous dispersion of the products under examination. The soil was then distributed into plastic pots, and after 5 days into each pot there were transplanted 5 tomato plants about 20 cm high. The survey of the results was carried out 21 days after the transplanting, by observing the roots of the plants extracted from the soil in order to ascertain the degree of infestation by counting the galls that have formed on them. The nematocide activity was expressed as a percentage of reduction of the infestation with respect to the witness plant (small plants transplanted into untreated soil, activity=0).

| Structure (SMILES) | mortality at 0.1 g/m2 [1] [%] | mortality at 0.2 ppm [2] [%] | mortality at 0.2 g/m2 [3] [%] | percentage of reduction of the infestation (percentage death rate), Macrosiph. E. [4] [%] | percentage of reduction of the infestation (percentage death rate), Leptinot D. [5] [%] | LD50 [6] [mg/kg] | percentage of reduction of the infestation (percentage of mortality), Tetran U. [7] [%] | percentage of reduction of the infestation (mortality percentage), Musca d. [8] [%] | percentage of reduction of the infestation (percentage death rate of larvae), Pieris B [9] [%] | percentage of reduction of the infestation (percentage mortality of larvae), Spodoptera L [10] [%] | percentage of reduction of the infestation, Meloidog. I. [11] [%] |
| --- | --- | --- | --- | --- | --- | --- | --- | --- | --- | --- | --- |
| CCOP(=S)(OC)Oc1cc(Cl)nn1-c1ccccc1 (stereo not drawn) [Compound 37] | 100 | 100 | 100 | 48 | 100 | 320 | 0 | 100 | 100 | 100 | 47 |
| CCOP(=S)(OCC)Oc1cc(Cl)nn1Cc1ccccc1 [Compound 29] | 100 | 100 | 5 | 60 | 100 |  | 100 | 100 | 100 | 100 | 59 |
| CCOP(=S)(OCC)Oc1cc(Cl)n(-c2ccc([N+](=O)[O-])cc2)n1 [Compound 52] | 100 | 100 | 0 | 54 | 37 |  | 96 | 100 | 100 | 95 | 96 |
| COP(=S)(OC)Oc1cc(Cl)nn1C(C)C [Compound 4] | 100 | 100 | 100 | 94 | 100 | 1100 | 80 | 100 |  | 80 |  |
| CCOP(=S)(OCC)Oc1cc(Cl)nn1CC [Compound 3] | 100 | 100 | 100 | 98 | 100 |  | 100 | 100 | 100 | 82 | 96 |
| CCOP(=S)(OCC)Oc1cc(C=C(Cl)Cl)nn1CCC#N [Compound 9] | 100 | 100 | 0 | 85 | 100 |  | 85 | 100 | 100 | 100 |  |
| CCOP(=S)(OC)Oc1cc(Cl)n(-c2ccc([N+](=O)[O-])cc2)n1 (stereo not drawn) [Compound 51] |  | 100 | 0 | 51 | 85 |  | 94 | 100 | 100 | 100 | 82 |
| CCOP(=S)(NC(C)C)Oc1cc(Cl)nn1C (stereo not drawn) [Compound 49] | 100 | 100 | 100 | 81 | 100 |  | 63 | 100 | 100 | 15 |  |
| CCOP(=S)(OCC)Oc1cc(Cl)n[nH]1 [Compound 11] |  |  |  |  |  | 70 |  |  |  |  |  |
| CCn1nc(Cl)cc1OP(=S)(OC)OC [Compound 21] | 100 | 100 | 100 | 100 | 100 |  | 100 | 100 | 100 | 70 | 100 |
| CCOP(=S)(OCC)Oc1cc(Cl)nn1-c1ccccc1 [Compound 2] | 100 | 100 | 100 | 40 | 97 | 33 |  | 100 | 100 | 100 |  |
| CCOP(=S)(OCC)Oc1cc(Cl)nn1CCC#N [Compound 7] | 100 | 100 | 70 | 100 | 100 |  | 100 | 100 | 100 | 100 | 100 |
| CCOP(=S)(OC)Oc1cc(Cl)nn1CC (stereo not drawn) [Compound 24] | 100 | 100 | 100 | 96 | 100 |  | 100 | 100 | 100 | 90 | 62 |
